Converted amounts (≈) assume the structure as drawn.
What was measured:
Format in all cases: cell-based
Klebsiella X68 = experiment: Agar dilution MIC
Staph. aureus X400 = experiment: Agar dilution MIC; conditions: Staphylococcus aureus
Staph. aureus S13E = experiment: microbe, parasite or virus in culture; conditions: Staphylococcus aureus
Staph. aureus V41 = experiment: Agar dilution MIC; conditions: Staphylococcus aureus, strain V41
Pseudomonas X239 = experiment: Agar dilution MIC; conditions: strain X239
From the text: (§1) The antibacterial activity of several representative compounds of the invention has been evaluated in standard in vitro agar dilution assays. The following Table presents typical minimum inhibitory concentrations (MIC's) in μg/ml for exemplary compounds when evaluated against typical Gram+and Gram-microorganism.
(§2) Agar Dilution MIC (μg/ml)

Pseudomonas X528 = experiment: Agar dilution MIC; conditions: strain X528
From the text: as §1, §2

Strep. D 9960 = experiment: Agar dilution MIC
Staph. epi EPI1 = experiment: Agar dilution MIC; conditions: strain EPI1

**Q.** What does the source list for `CO/N=C(\C(=O)N[C@@H]1C(=O)N2C(C(=O)[O-])=C(C[n+]3cccc4nc(N)sc43)CS[C@H]12)c1csc(N)n1` [Example 15, syn-7-[2-(2-aminothiazol-4-yl)-2-methoxyiminoacetamido]-3-(2-aminothiazolo[5,4-b]pyridinium-4-ylmethyl)-3-cephem-4-carboxylate]?
**A.** MIC (Klebsiella X68): 4 µg/mL (≈ 7.32 µM); MIC (Staph. aureus X400): 32 µg/mL (≈ 58.5 µM); MIC (Staph. aureus S13E): 4 µg/mL (≈ 7.32 µM); MIC (Staph. aureus V41): 2 µg/mL (≈ 3.66 µM); MIC (Pseudomonas X239): 2 µg/mL (≈ 3.66 µM); MIC (Pseudomonas X528): 1 µg/mL (≈ 1.83 µM); MIC (Strep. D 9960): 8 µg/mL (≈ 14.6 µM); MIC (Staph. epi EPI1): 2 µg/mL (≈ 3.66 µM)

Source: patent US4748172A, “3-bicyclicpyridinium-methyl cephalosporins” (Eli Lilly and Company, priority 1987, dated 1988)
